# Patent US7772240B2, “Trans-1(6-chloro-3-phenylindan-1-yl)-3,3-dimethylpiperazine” (H. Lundbeck A/S, priority 2003, dated 2010)
# Columns and labels:
# [1] = molecular target: T1, human CYP2D6 (Homo sapiens, UniProt P10635); experiment: CYP2D6 inhibitor assay (recombinant microsomes, AMMC substrate); type: in vitro ADME; conditions: result in words
# T1 construct: purchased BD Biosciences (Gentest) 456217; host or cells: baculovirus/insect cells
# Description: Principle: The inhibition of human CYP2D6 is assessed using microsomes prepared from baculovirus/insect cells cDNA expressing CYP2D6 as enzyme sources and the specific CYP2D6 substrate AMMC (3-[2-(N,N-diethyl-N-methylammonium)-ethyl]-7-methoxy-4-methylcoumarin). AMMC is O-demethylated to AHMC (3-[2-(N,N-diethylamino)ethyl]-7-hydroxy-4-methylcoumarin) which is detected by measuring appearance of fluorescence.
# Microsomes prepared from baculovirus/insect cells cDNA expressing CYP2D6 were obtained from BD Biosciences (Gentest 456217). Fluorescence measured Ex. (405 nm) Em. (465 nm) by a SpectroFluor Plus Plate Reader (Tecan Nordic). Incubations with the recombinant CYP2D6 micrsomes contained 1.5 pmol of the recombinant CYP2D6 in 0.2 ml total volume 100 mM phosphate buffer at pH 7.4 containing […] AMMC (3-[2-(N,N-diethyl-N-methylammonium)-ethyl]-7-methoxy-4-methylcoumarin) with a low NADPH-regenerating system consisting of 0.0082 mM NADP^+, 0.41 mM glucose 6-phosphate, 0.41 mM magnesium chloride and 0.4 units/ml glucose-6-phoshate dehydrogenase. The incubation time was 45 min and the incubations were quenched by addition of 0.075 ml 80% Acetonitrile 20% 0.5 M Tris base. All chemicals were of analytical grade from Sigma (St. Louis, Mo.). […] The IC50 values were calculated by linear interpolation.
# [2] = system: D1/D2; conditions: cited from earlier work
# [3] = system: D1 and D2; conditions: cited from earlier work
# [4] = system: 5-HT2; conditions: cited from earlier work
# [5] = system: α1 adrenoceptors; conditions: cited from earlier work
# [6] = molecular target: T2, human D2 receptor (Homo sapiens, UniProt P14416); experiment: DA D2 receptor binding ([3H]-Spiperone)
# T2 construct: expressed in transfected cells; host or cells: CHO cells
# Description: (§1) For all assays: Results are expressed as percent inhibition of control specific binding and the IC50 values (concentration causing a half-maximal inhibition of control specific binding) are determined by non-linear regression analysis using Hill equation curve fitting. The inhibition constants (Ki) were calculated from the Cheng Prusoff equation Ki=IC50/(1+(L/KD)), where L equals the concentration of radioligand in the assay) and KD equals the affinity of the radioligand for the receptor.
# CHO cells expressing approximately 800 fmol/mg human recombinant D2 receptors were generated standard stable transfection techniques. […] Total binding was determined in the presence of buffer and non-specific binding was determined in the presence of 10 μM haloperidol. The mixture was incubated for 30 minutes at 37° C., cooled briefly on ice. Bound and free radioactivity was separated by vacuum filtration on GF/C filters pretreated with 0.1% Polyetyleneime (PEI) and filters were counted in a scintillation counter.
# [7] = system: alpha-1 adrenoceptors; experiment: Alpha-1 adrenoceptor binding ([3H]Prazosin); parameters: species or system rat
# Description: as §1
# Chinese hamster ovary (CHO) cell lines expressing rat alpha1d and Baby hamster Kidney (BHK) cells expressing bovine alpha1a were generated using standard stable transfection techniques. The Rat-1 cell line expressing the hamster alpha1b receptor was obtained from University of Utah, Salt Lake City, Utah. […] Total binding was determined using assay buffer and non-specific binding was defined in the presence of 1 μM WB-4101 for all subtypes of alpha1 receptors. […] In all assays bound and free radioactivity were separated by vacuum filtration on GF/B filters pretreated with Polyetyleneimine (PEI) and counted in a scintillation counter.
# By this method, the inhibition by drugs of the binding of [^3H]Prazosin (0.25 nM) to alpha-1 receptors in membranes from rat brain is determined in vitro. […]
# [8] = molecular target: T2, human D2 receptor; experiment: DA D2 efficacy assay, inhibition of D2 mediated inhibition of cAMP formation in CHO cells; type: cell-based
# Description: The ability of the compounds to inhibit the D2 receptor mediated inhibition of cAMP formation in CHO cells transfected with the human D2 receptor was measure as follows.
# Cells were seeded in 96 well plates at a concentration of 8000 cells/well 3 days prior to the experiment. On the day of the experiment the cells were washed once in preheated G buffer (1 mM MgCl2, 0.9 mM CaCl2, 1 mM IBMX in PBS) and the assay was initiated by addition of 100 μl of a mixture of 1 μM quinpirole, 10 μM forskolin and test compound in G buffer. The cells were incubated 20 minutes at 37° C. and the reaction was stopped by the addition of 100 μl S buffer (0.1 M HCl and 0.1 mM CaCl2) and the plates were placed at 4° C. for 1 hour. 68 μl N buffer (0.15 M NaOH and 60 mM NaAc) were added and the plates were shaken for 10 minutes. 60 μl of the reaction were transferred to cAMP FlashPlates (DuPont NEN) containing 40 μl 60 mM NaAc pH 6.2 and 100 μl IC mix (50 mM NaAc pH 6.2, 0.1% NaAzid, 12 mM CaCl2, 1% BSA and 0.15 μCi/ml ^125I-cAMP) were added. Following an 18-hour incubation at 4° C. the plates were washed once and counted in a Wallac TriLux counter.
# [9] = molecular target: T3, 5-HT2A receptors (Homo sapiens, UniProt P28223); experiment: Serotonin 5-HT2A efficacy assay (Ca2+ fluorescence, CHO cells); type: cell-based
# T3 construct: expressed in transfected cells; host or cells: CHO cells
# Description: 2 or 3 days before the experiment, CHO cells expressing 250 fmol/mg S-HT2A receptors are plated at a density sufficient to yield a mono-confluent layer on the day of the experiment. The cells are dye loaded (Ca^2+-kit from Molecular Devices and using Hank's balanced salt w/o phenol red, added 20 mM HEPES and pH adjusted to 7.4 with 2M NaOH as assaybuffer) for 60 minutes at 37° C. in a 5% CO2 incubator at 95% humidity. Lacer intensity is set to a suitable level to obtain basal values of approximately 8000-10000 fluorescence units. The variation in basal fluorescence should be less than 10%. EC50 values are assessed using increasing concentrations of test compound covering at least 3 decades. IC50 values are assessed challenging the same range of concentrations of test substances with EC85 of 5-HT. Test substances are added to the cells 5 minutes before the 5-HT. […] Maximum inhibition is the level of inhibition the curve reaches. It is expressed as the percentage inhibition at that level and used to distinguish full and partial antagonists.
# [10] = QT-interval in the alpha-chloralose anaesthetised rabbit; type: in vivo
# Description: The model described in the following was originally designed as a proarrhytmic model by Carlsson et al, [J Cardiovasc Pharmacol. 1990;16:276-85.] and has been modified to fit into screening set-up as described below under “animal preparation”.
# Male rabbits (HsdIf:NZW, outbreed) weighing 2.0-2.8 kg were purchased from Harlan (The Netherlands). Individual body weights were measured and recorded on the day of experiment. […]
# ECG, blood pressure and HR were continuously recorded on a Maclab 8/s using the Chart software v3.6.1 for the Macintosh computer. […] Effects on the electrocardiogram (PQ-, QRS-, QT-, QTc-intervals and heart rate) and mean arterial blood pressure (MAP) were recorded and measured electronically.
# [11] = molecular target: T4, human D1 receptors (Homo sapiens, UniProt P21728); experiment: DA D1 receptor binding ([3H]-SCH23390, Cerep); parameters: host or cells: CHO cells (membranes)
# Description: For all assays: Results are expressed as percent inhibition of control specific binding and the IC50 values (concentration causing a half-maximal inhibition of control specific binding) are determined by non-linear regression analysis using Hill equation curve fitting. The inhibition constants (Ki) were calculated from the Cheng Prusoff equation Ki=IC50/(1+(L/KD)), where L equals the concentration of radioligand in the assay) and KD equals the affinity of the radioligand for the receptor. Affinities towards human D1 receptors were determined at the contract laboratory Cerep using the catalog reference assay no 803-1h. Membranes from CHO cells expressing human recombinant D1 receptors were used. 0.3 nM [^3H]-SCH23390 was used as radioligand and compounds were tested in a serial dilution concurrently with the reference compound SCH23390 in order to assess the assay suitability. Aliqouts were incubates at 22° C. for 60 min and bound radioactivity are measured with a liquid scintillation counter. Specific control binding to the D1 receptors was defined as the difference between the total binding determined without compound present and the non-specific binding determined in the presence of 1 μm SCH 23390.
# [12] = molecular target: T4, human D1 receptors; experiment: DA D1 efficacy assay, inhibition of D1 mediated cAMP formation in CHO cells; type: cell-based; parameters: expressed in transfected cells; host or cells: CHO cell line generated in-house
# Description: The ability of the compounds to inhibit the D1 receptor mediated cAMP formation in a CHO cell line generated in-house stably expressing the human recombinant D1 receptor was measured as follows. Cells were seeded in 96-well plates at a concentration of 11000 cells/well 3 days prior to the experiment. On the day of the experiment the cells were washed once in preheated G buffer (1 mM MgCl2, 0.9 mM CaCl2, 1 mM IBMX in PBS) and the assay was initiated by addition of 100 μl of a mixture of 30 nM A68930 and test compound diluted in G buffer. The cells were incubated for 20 minutes at 37° C. and the reaction was stopped by the addition of 100 μl S buffer (0.1 M HCl and 0.1 mM CaCl2) and the plates were placed at 4° C. for 1 hour. 68 μl N buffer (0.15 M NaOH and 60 mM NaAc) was added and the plates were shaken for 10 minutes. 60 μl of the reaction were transferred to cAMP FlashPlates (DuPont NEN) containing 40 μl 60 mM NaAc pH 6.2 and 100 μl IC mix (50 mM NaAc pH 6.2, 0.1% NaAzid, 12 mM CaCl2, 1% BSA and 0.15 μCi/ml ^125I-cAMP) were added. Following an 18-hour incubation at 4° C. the plates were washed once and counted in a Wallac TrLux counter.
# T2 sequence (P14416 whole entry): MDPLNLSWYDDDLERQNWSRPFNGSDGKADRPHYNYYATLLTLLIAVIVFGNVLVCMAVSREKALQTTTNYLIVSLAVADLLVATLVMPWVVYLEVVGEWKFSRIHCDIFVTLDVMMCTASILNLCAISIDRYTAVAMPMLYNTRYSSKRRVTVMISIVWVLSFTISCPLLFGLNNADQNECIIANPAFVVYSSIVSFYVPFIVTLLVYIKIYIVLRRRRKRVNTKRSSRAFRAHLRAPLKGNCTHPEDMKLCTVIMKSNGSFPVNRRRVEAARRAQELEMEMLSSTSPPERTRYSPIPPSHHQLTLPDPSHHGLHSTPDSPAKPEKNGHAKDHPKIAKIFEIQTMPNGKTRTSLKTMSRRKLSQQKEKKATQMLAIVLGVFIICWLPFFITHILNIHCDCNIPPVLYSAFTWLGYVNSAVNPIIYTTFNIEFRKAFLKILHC
# T4 sequence (P21728 whole entry): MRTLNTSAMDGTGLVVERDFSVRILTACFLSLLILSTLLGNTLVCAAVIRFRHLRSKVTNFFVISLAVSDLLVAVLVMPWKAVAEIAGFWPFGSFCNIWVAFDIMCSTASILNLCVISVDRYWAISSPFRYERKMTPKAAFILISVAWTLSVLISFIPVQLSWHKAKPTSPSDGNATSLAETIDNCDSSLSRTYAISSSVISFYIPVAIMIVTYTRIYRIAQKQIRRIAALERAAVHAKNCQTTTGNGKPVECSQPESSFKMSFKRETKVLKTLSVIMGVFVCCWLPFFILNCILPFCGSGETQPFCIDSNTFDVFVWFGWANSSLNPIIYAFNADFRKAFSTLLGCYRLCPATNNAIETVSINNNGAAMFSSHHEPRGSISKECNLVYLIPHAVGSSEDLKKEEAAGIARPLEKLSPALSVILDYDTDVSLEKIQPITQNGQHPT
# T1 sequence (P10635 whole entry): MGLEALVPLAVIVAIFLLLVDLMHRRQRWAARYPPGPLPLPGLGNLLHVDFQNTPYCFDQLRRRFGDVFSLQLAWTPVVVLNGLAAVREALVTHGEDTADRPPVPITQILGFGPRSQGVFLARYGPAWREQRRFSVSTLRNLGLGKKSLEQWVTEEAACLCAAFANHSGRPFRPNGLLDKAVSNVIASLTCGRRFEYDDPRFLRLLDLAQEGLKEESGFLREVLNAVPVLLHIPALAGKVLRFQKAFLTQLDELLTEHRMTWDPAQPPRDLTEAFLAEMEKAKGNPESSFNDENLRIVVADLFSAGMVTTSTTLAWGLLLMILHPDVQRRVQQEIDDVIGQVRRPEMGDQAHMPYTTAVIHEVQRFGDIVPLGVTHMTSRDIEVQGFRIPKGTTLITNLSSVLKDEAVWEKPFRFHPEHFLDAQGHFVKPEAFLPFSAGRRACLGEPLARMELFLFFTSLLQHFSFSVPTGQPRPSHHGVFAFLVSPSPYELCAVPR
# T3 sequence (P28223 whole entry): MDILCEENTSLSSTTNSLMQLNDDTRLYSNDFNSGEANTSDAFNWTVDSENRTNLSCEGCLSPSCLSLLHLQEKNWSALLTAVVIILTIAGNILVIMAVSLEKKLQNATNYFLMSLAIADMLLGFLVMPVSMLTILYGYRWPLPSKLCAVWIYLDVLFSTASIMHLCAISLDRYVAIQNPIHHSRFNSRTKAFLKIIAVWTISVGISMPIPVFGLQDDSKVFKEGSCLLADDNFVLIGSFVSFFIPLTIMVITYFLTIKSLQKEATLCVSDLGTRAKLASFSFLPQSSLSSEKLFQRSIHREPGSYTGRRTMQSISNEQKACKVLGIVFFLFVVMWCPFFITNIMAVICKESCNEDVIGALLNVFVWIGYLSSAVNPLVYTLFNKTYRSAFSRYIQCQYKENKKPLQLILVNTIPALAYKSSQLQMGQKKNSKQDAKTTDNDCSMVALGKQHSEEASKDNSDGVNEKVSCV
SMILES,inhibition of CYP2D6 [1],D1/D2 antagonism in vitro [2],D1 and D2 antagonism in vivo [3],5-HT2 antagonism [4],affinity for α1 adrenoceptors [5],affinity for dopamine D2 receptors [6],affinity for alfa1 adrenoceptors [7],functional activity at dopamine D2 receptors [8],functional activity at serotonin 5-HT2a receptors [9],prolonging effect on the QT-interval in the electrocardiogram (ECG) [10],affinity for dopamine D1 receptors [11],functional activity at dopamine D1 receptors [12]
"CC1(C)CN([C@@H]2C[C@@H](c3ccccc3)c3ccc(Cl)cc32)CCN1 (racemic) [racemate of the compound of the present invention, trans-1-(6-chloro-3-phenylindan-1-yl)-3,3-dimethylpiperazine]",considerable more potent,,,,,,,,,,,
CN1CCN([C@@H]2C[C@@H](c3ccccc3)c3ccc(Cl)cc32)CC1(C)C [(−)-38],,potent D1/D2 antagonists showing some D1 selectivity,equipotent as D1 and D2 antagonist,potent 5-H T2 antagonist,high affinity,,,,,,,
"CC1(C)CN([C@@H]2C[C@@H](c3ccccc3)c3ccc(Cl)cc32)CCN1 [Compound I, trans-1-((1R,3S)-6-chloro-3-phenylindan-1-yl)-3,3-dimethylpiperazine]",relatively weak inhibitor,,,,,high affinity,high affinity,antagonist,antagonist,relatively low prolonging effect,high affinity,antagonist
